Activity calls are given as the source filed them. No cut-off for these calls is given here.

For one test, the system named is DU-145. The experiment in a line: Displacement of [14C]-spermidine from polyamine transporter in human DU145 cells at 1 to 100 uM after 10 mins. The test is classed as cell-based.
The target of test [1] is T1, Ornithine decarboxylase (Homo sapiens) (UniProt P11926).
T1 sequence (whole entry): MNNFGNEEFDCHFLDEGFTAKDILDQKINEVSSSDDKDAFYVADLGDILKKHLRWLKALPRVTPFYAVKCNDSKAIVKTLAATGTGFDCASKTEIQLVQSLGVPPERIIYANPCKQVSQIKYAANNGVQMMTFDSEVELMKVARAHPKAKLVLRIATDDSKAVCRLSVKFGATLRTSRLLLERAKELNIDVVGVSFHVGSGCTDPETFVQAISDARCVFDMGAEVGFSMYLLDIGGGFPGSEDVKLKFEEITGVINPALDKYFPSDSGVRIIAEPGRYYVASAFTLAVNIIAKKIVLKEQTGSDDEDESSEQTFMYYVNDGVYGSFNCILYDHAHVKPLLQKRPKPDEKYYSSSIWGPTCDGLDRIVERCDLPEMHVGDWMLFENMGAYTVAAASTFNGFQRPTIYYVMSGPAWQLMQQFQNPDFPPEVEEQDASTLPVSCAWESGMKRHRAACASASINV
The test can be described thus: Activity of ornithine decarboxylase in human DU145 cells assessed per ug DNA at 100 uM after 48 hrs in presence of serum amine oxidase inhibitor aminoguanidine (RVb = 17.7+/- 2.6 pmol/h per ug DNA). The test is classed as cell-based. To be noted: DU-145.

For test [2], the target named is Diamine acetyltransferase 1 (Homo sapiens) (UniProt P21673). The experiment in a line: Activity of SSAT in human DU145 cells assessed per ug DNA at 100 uM after 72 hrs in presence of serum amine oxidase inhibitor aminoguanidine (RVb = 62 +/- 4 pmol/h per ug DNA). The test is classed as cell-based. To be noted: DU-145.
The target of test [3] is T1, Ornithine decarboxylase (Homo sapiens). The experiment in a line: Activity of ornithine decarboxylase in human DU145 cells assessed per ug DNA at 100 uM after 72 hrs in presence of serum amine oxidase inhibitor aminoguanidine (RVb = 7.5+/- 0.9 pmol/h per ug DNA). The test is classed as cell-based. To be noted: DU-145.
Test [4] deals with Diamine acetyltransferase 1 (Homo sapiens) (UniProt P21673). The test can be described thus: Activity of SSAT in human DU145 cells assessed per ug DNA at 100 uM after 48 hrs in presence of serum amine oxidase inhibitor aminoguanidine (RVb = 58 pmol/h per ug DNA). The test is classed as cell-based. To be noted: DU-145.
Test [5] deals with T2, S-adenosylmethionine decarboxylase proenzyme (Homo sapiens) (UniProt P17707).
T2 sequence (whole entry): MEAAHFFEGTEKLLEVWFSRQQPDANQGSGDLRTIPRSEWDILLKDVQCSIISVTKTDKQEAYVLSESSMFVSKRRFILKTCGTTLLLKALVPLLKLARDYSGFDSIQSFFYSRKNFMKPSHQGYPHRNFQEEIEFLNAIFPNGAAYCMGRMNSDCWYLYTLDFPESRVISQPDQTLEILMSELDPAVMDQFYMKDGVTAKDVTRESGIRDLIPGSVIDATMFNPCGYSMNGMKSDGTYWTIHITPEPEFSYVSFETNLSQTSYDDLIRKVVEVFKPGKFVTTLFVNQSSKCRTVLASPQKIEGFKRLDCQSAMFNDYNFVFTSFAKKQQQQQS
The experiment in a line: Activity of S-adenosyl-L-methionine decarboxylase in human DU145 cells assessed per ug DNA at 100 uM after 24 hrs in presence of serum amine oxidase inhibitor aminoguanidine (RVb = 61 +/- 5 pmol/h per ug DNA). The test is classed as cell-based. To be noted: DU-145.

The target in test [6] is Diamine acetyltransferase 1 (Homo sapiens) (UniProt P21673). The test can be described thus: Activity of SSAT in human DU145 cells assessed per ug DNA at 100 uM after 24 hrs in presence of serum amine oxidase inhibitor aminoguanidine (RVb = 59 +/- 1 pmol/h per ug DNA). The test is classed as cell-based. To be noted: DU-145.
The test system of another test is Nucleic Acid. The test can be described thus: Induction of SSAT alternative splicing in mouse primary fetal fibroblasts assessed as SSAT-X mRNA at 100 uM by qRT-PCR in presence of CHX relative to total SSAT mRNA.
For test [7], the target named is T2, S-adenosylmethionine decarboxylase proenzyme (Homo sapiens). The experiment in a line: Activity of S-adenosyl-L-methionine decarboxylase in human DU145 cells assessed per ug DNA at 100 uM after 48 hrs in presence of serum amine oxidase inhibitor aminoguanidine (RVb = 73 +/- 1 pmol/h per ug DNA). The test is classed as cell-based. To be noted: DU-145.
Test [8] has as its target T1, Ornithine decarboxylase (Homo sapiens). The experiment in a line: Activity of ornithine decarboxylase in human DU145 cells assessed per ug DNA at 100 uM after 24 hrs in presence of serum amine oxidase inhibitor aminoguanidine (RVb = 29.3 +/- 1.4 pmol/h per ug DNA). The test is classed as cell-based. To be noted: DU-145.
The target in test [9] is T2, S-adenosylmethionine decarboxylase proenzyme (Homo sapiens). The experiment in a line: Activity of S-adenosyl-L-methionine decarboxylase in human DU145 cells assessed per ug DNA at 100 uM after 72 hrs in presence of serum amine oxidase inhibitor aminoguanidine (RVb = 72 +/- 6 pmol/h per ug DNA). The test is classed as cell-based. To be noted: DU-145.
Test [10] deals with Peroxisomal N(1)-acetyl-spermine/spermidine oxidase (Homo sapiens) (UniProt Q6QHF9). The test can be described thus: Activity of APAO in human DU145 cells assessed per ug DNA at 100 uM after 72 hrs in presence of serum amine oxidase inhibitor aminoguanidine (RVb = 662 +/- 48 pmol/h per ug DNA). The test is classed as cell-based. To be noted: DU-145.
Test [11] shares this target. The experiment in a line: Activity of APAO in human DU145 cells assessed per ug DNA at 100 uM after 48 hrs in presence of serum amine oxidase inhibitor aminoguanidine (RVb = 699 +/- 21 pmol/h per ug DNA). The test is classed as cell-based. To be noted: DU-145.
Test [12] has as its target Spermine oxidase (Homo sapiens) (UniProt Q9NWM0). The test can be described thus: Activity of spermine oxidase in human DU145 cells assessed per ug DNA at 100 uM after 24 hrs in presence of serum amine oxidase inhibitor aminoguanidine (RVb = 493 +/- 22 pmol/h per ug DNA). The test is classed as cell-based. To be noted: DU-145.
Test [13] has as its target Peroxisomal N(1)-acetyl-spermine/spermidine oxidase (Homo sapiens) (UniProt Q6QHF9). The test can be described thus: Activity of APAO in human DU145 cells assessed per ug DNA at 100 uM after 24 hrs in presence of serum amine oxidase inhibitor aminoguanidine (RVb = 540 +/- 61 pmol/h per ug DNA). The test is classed as cell-based. To be noted: DU-145.
The target of test [14] is Spermine oxidase (Homo sapiens) (UniProt Q9NWM0). The experiment in a line: Activity of spermine oxidase in human DU145 cells assessed per ug DNA at 100 uM after 48 hrs in presence of serum amine oxidase inhibitor aminoguanidine (RVb = 680 +/- 29 pmol/h per ug DNA). To be noted: DU-145. The test is classed as cell-based.
The target is the same in test [15]. The experiment in a line: Activity of spermine oxidase in human DU145 cells assessed per ug DNA at 100 uM after 72 hrs in presence of serum amine oxidase inhibitor aminoguanidine (RVb = 742 +/- 10 pmol/h per ug DNA). To be noted: DU-145. The test is classed as cell-based.

Sequence of Peroxisomal N(1)-acetyl-spermine/spermidine oxidase (Homo sapiens) (Q6QHF9 whole entry): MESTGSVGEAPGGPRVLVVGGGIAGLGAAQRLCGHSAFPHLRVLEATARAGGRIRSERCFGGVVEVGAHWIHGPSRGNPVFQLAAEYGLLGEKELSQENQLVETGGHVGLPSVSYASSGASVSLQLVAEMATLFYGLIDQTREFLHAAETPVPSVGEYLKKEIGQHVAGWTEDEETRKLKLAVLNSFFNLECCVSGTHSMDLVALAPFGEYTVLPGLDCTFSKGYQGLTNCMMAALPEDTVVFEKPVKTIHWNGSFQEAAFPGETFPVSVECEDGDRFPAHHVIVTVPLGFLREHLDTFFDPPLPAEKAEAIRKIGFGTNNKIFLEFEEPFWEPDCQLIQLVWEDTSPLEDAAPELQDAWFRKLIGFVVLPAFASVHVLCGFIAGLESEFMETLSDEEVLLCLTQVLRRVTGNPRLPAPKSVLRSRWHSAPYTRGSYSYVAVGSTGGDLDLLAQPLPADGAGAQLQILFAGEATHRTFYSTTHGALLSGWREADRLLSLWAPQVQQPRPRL
Sequence of Spermine oxidase (Homo sapiens) (Q9NWM0 whole entry): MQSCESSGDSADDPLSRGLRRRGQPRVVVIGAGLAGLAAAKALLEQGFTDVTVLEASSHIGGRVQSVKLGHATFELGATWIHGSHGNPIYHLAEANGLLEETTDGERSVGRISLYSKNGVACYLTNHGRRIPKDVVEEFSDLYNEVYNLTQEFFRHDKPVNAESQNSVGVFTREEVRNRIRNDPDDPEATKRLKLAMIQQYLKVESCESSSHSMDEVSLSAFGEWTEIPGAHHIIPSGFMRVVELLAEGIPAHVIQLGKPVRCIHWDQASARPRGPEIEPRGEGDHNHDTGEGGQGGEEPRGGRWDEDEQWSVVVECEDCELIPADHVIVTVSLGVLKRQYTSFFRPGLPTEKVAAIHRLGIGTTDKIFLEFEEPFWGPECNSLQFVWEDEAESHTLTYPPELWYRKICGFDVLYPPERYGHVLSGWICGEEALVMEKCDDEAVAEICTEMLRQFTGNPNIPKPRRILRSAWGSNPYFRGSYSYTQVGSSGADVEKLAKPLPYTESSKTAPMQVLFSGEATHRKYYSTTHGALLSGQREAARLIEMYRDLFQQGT
Sequence of Diamine acetyltransferase 1 (Homo sapiens) (P21673 whole entry): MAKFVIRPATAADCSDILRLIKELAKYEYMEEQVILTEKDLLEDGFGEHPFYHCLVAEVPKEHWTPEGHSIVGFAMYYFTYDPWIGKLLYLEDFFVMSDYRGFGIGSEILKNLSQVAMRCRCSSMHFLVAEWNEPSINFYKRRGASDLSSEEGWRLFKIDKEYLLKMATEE

Consider `NCCCCNCCCN`, for which the result in the test on DU-145 was Active.

`CC(CCN)NCCCCN` (stereo not given): the Activity is 9.3 pmol/h in test [1]; 69 pmol/h in test [2]; 5.4 pmol/h in test [3]; 59 pmol/h in test [4]; 53 pmol/h in test [5]; 62 pmol/h in test [6]. For the same compound, the Activity in test [7] amounted to 60 pmol/h; in [8], 8.8 pmol/h; in test [9], 58 pmol/h; in test [10], 775 pmol/h; in [11], 693 pmol/h; in test [12] it was 204 pmol/h. For the same compound, the Activity is 528 pmol/h in test [13], 474 pmol/h in test [14] and 571 pmol/h in test [15]. In addition, the result in the test with Nucleic Acid and in the test with DU-145 was Active.

Take `CC(CN)CNCCCCN` (stereo not given): the Activity in test [1] amounted to 16.6 pmol/h; in [2] it was 61 pmol/h; in [3] it was 9.1 pmol/h; in test [4], 59 pmol/h; in test [5], 67 pmol/h; in test [6] it was 56 pmol/h. Besides, the Activity in test [7] worked out at 71 pmol/h; in test [8] it was 21.7 pmol/h; in [9] it was 79 pmol/h; in test [10], 732 pmol/h; in [11], 719 pmol/h; in [12], 394 pmol/h. Further, the Activity in test [13] was 562 pmol/h; in test [14], 655 pmol/h; in [15] it was 608 pmol/h. The outcome with Nucleic Acid and with DU-145 was Active.

In the case of `C[C@H](N)CCNCCCCN`, the Activity in test [1] is 4.4 pmol/h; in [2] it was 66 pmol/h; in test [3], 3.5 pmol/h; in [4], 61 pmol/h; in test [5] it was 64 pmol/h; in test [6], 67 pmol/h. The Activity was 72 pmol/h in test [7]; 4.3 pmol/h in test [8]; 75 pmol/h in test [9]; 745 pmol/h in test [10]; 779 pmol/h in test [11]; 362 pmol/h in [12]. The Activity in [13] stood at 545 pmol/h; in test [14], 695 pmol/h; in [15], 754 pmol/h. In addition, the outcome in the test with Nucleic Acid and in the test on DU-145 was Active.

For `CC(N)CCCNCCCN` (stereo not given), the Activity was 5.5 pmol/h in test [1]; 61 pmol/h in test [2]; 3.8 pmol/h in [3]; 62 pmol/h in test [4]; 53 pmol/h in test [5]; 65 pmol/h in test [6]. In addition, the Activity was determined as 67 pmol/h in [7]; 4.7 pmol/h in [8]; 63 pmol/h in test [9]; 737 pmol/h in [10]; 770 pmol/h in test [11]; 515 pmol/h in test [12]. Besides, the Activity amounted to 562 pmol/h in test [13], 738 pmol/h in test [14] and 832 pmol/h in test [15]. Moreover, the outcome in the test with Nucleic Acid and in the test on DU-145 was Active.

Regarding `CCNCCCNCCCNCCCNCC`, the outcome in the test on Nucleic Acid was Active.
